Laboratory results taken from patent publication US20190167819A1, “CONTRAST AGENTS” (BRACCO IMAGING S.P.A., priority 2016, published 2019).

Assay: Relaxometric properties: longitudinal relaxivity r1p in human plasma
Type: physicochemical
Conditions: 37° C.
Experimental: The relaxometric properties of some representative complex compounds according to the invention have been determined at different magnetic field strengths, e.g. including 0.47 and 1.41 T, at 37° C. and in different media (physiologic solution and human plasma) and compared with relaxivity values measured, at the same conditions, for some Gd-Complex of the market having an analogous cyclic coordination cage.
The longitudinal water proton relaxation rate (R1=1/T1) was measured at 0.47 T with a Minispec MQ-20 spectrometer (Bruker Biospin, Germany) operating at a proton Larmor frequency of 20 MHz; MR experiments at 1.41 T were performed using a Minispec MQ-60 spectrometer (Bruker Biospin, Germany) operating at a proton Larmor frequency of 60 MHz.
All test articles were used as supplied and diluted in the selected medium (physiologic solution or human plasma) by weighting the required amount of paramagnetic chelated complex to get a 5 or 10 mM starting solution.
Five different concentration samples (0.1, 0.25, 0.5, 0.75 and 1 mM) for each medium have been prepared by further dilution of the starting 5 or 10 mM solution.
Relaxivity measurements were performed at 0.47 T and 1.41 T at a preset temperature sample of 37° C., kept constant by means of a thermostatic bath connected to the sample holder of the spectrometer. The five sample solutions have been preliminary pre-heated at 37° C. in an external thermostatic bath and then left 10 minutes inside the internal bath to assure the stabilization of the temperature. Longitudinal relaxation time T1 was measured by means of a standard inversion recovery sequence, where the inversion time (TI) was varied from 10 ms to at least 5 times T1 in 15 steps. Statistical analysis (mono-exponential fitting for T1 measurement, linear fitting for the evaluation of longitudinal relaxivity) was performed by Mathematica® (Wolfram, USA). Errors on the estimated parameters were evaluated by the fitting procedure.

r1p in human plasma (0.47 T) [mM⁻¹ s⁻¹]	r1p in human plasma (1.41 T) [mM⁻¹ s⁻¹]	Compound
4.5	3.6	O=C(O)CN1CCN(CC(=O)O)CCN(CC(=O)O)CCN(CC(=O)O)CC1
7.41	6.8	O=C(O)CN1CCN(CC(O)COCC(COCC(O)CN2CCN(CC(=O)O)CCN(CP(=O)(O)O)CCN(CC(=O)O)CC2)OCc2ccccc2)CCN(CC(=O)O)CCN(CP(=O)(O)O)CC1 (stereo not drawn)

Compound	r1p in human plasma (0.47 T) [mM⁻¹ s⁻¹]	r1p in human plasma (1.41 T) [mM⁻¹ s⁻¹]
CC(O)CN1CCN(CC(=O)O)CCN(CC(=O)O)CCN(CC(=O)O)CC1 (stereo not drawn) (Gd complex, metal not drawn)	4.9	4.15
